Measurements from the supplement of paper PMC10307832.

Assays:
Test in all cases: relative viability (nuclei count vs DMSO), 5 days (fraction); higher = more cells survive
Doxorubicin + Bortezomib = compound: COc1cccc2c1C(=O)c1c(O)c3c(c(O)c1C2=O)C[C@@](O)(C(=O)CO)C[C@@H]3O[C@H]1C[C@H](N)[C@H](O)[C@H](C)O1 [Doxorubicin] + CC(C)C[C@H](NC(=O)[C@H](Cc1ccccc1)NC(=O)c1cnccn1)B(O)O [Bortezomib] (partner 0.002 µM)
Method in brief: (§1)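 Lung cancer cell lines were seeded in 1536-well plates and dosed by pin tool the next day, with either a single drug or a fixed anchor-drug dose combined with five library-drug doses (not always all listed) spaced in √10 steps. Five days later, one step fixed the cells and stained their nuclei (final 0.05% Triton X-100, 1% formaldehyde, 1 ug/ml Hoechst), and nuclei were counted on 4× images. Relative viability is the nuclei count in treated wells divided by the count in vehicle wells, and each value is the median of duplicate plates.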

Doxorubicin + Foretinib = compound: COc1cccc2c1C(=O)c1c(O)c3c(c(O)c1C2=O)C[C@@](O)(C(=O)CO)C[C@@H]3O[C@H]1C[C@H](N)[C@H](O)[C@H](C)O1 [Doxorubicin] + COc1cc2c(Oc3ccc(NC(=O)C4(C(=O)Nc5ccc(F)cc5)CC4)cc3F)ccnc2cc1OCCCN1CCOCC1 [Foretinib] (partner 0.25 µM)
Method in brief: as §1

BAY61-3606 + Tozasertib = compound: COC1=C(C=C(C=C1)C2=CC3=NC=CN3C(=N2)NC4=C(C=CC=N4)C(=O)N)OC [BAY61-3606] + Cc1cc(Nc2cc(N3CCN(C)CC3)nc(Sc3ccc(NC(=O)C4CC4)cc3)n2)n[nH]1 [Tozasertib] (partner 0.1 µM)
Method in brief: as §1

Doxorubicin + Linsitinib = compound: COc1cccc2c1C(=O)c1c(O)c3c(c(O)c1C2=O)C[C@@](O)(C(=O)CO)C[C@@H]3O[C@H]1C[C@H](N)[C@H](O)[C@H](C)O1 [Doxorubicin] + C[C@]1(O)C[C@@H](c2nc(-c3ccc4ccc(-c5ccccc5)nc4c3)c3c(N)nccn32)C1 [Linsitinib] (partner 1 µM)
Method in brief: as §1

| Cell Line | relative viability (Doxorubicin + Bortezomib; first compound 0.001 µM) | relative viability (Doxorubicin + Bortezomib; first compound 0.003162 µM) | relative viability (Doxorubicin + Bortezomib; first compound 0.01 µM) | relative viability (Doxorubicin + Bortezomib; first compound 0.03162 µM) | relative viability (Doxorubicin + Bortezomib; first compound 0.1 µM) | relative viability (Doxorubicin + Foretinib; first compound 0.001 µM) | relative viability (Doxorubicin + Foretinib; first compound 0.003162 µM) | relative viability (Doxorubicin + Foretinib; first compound 0.01 µM) | relative viability (Doxorubicin + Foretinib; first compound 0.03162 µM) | relative viability (Doxorubicin + Foretinib; first compound 0.1 µM) | relative viability (BAY61-3606 + Tozasertib; first compound 0.02 µM) | relative viability (BAY61-3606 + Tozasertib; first compound 0.06325 µM) | relative viability (BAY61-3606 + Tozasertib; first compound 0.2 µM) | relative viability (BAY61-3606 + Tozasertib; first compound 0.6325 µM) | relative viability (BAY61-3606 + Tozasertib; first compound 2 µM) | relative viability (Doxorubicin + Linsitinib; first compound 0.001 µM) | relative viability (Doxorubicin + Linsitinib; first compound 0.003162 µM) | relative viability (Doxorubicin + Linsitinib; first compound 0.01 µM) | relative viability (Doxorubicin + Linsitinib; first compound 0.03162 µM) | relative viability (Doxorubicin + Linsitinib; first compound 0.1 µM) |
| --- | --- | --- | --- | --- | --- | --- | --- | --- | --- | --- | --- | --- | --- | --- | --- | --- | --- | --- | --- | --- |
| NCI-H727 | 0.794 | 0.985 | 0.656 | 0.658 | 0.613 | 0.894 | 1.22 | 1.03 | 0.725 | 1.05 | 0.799 | 0.593 | 0.521 | 0.656 | 0.442 | 0.275 | 0.323 | 0.304 | 0.251 | 0.455 |
| A-427 | 1.03 | 1.06 | 0.966 | 0.942 | 0.991 | 0.981 | 1.13 | 0.97 | 1.02 | 1.05 | 0.222 | 0.183 | 0.171 | 0.222 | 0.187 | 1.11 | 1.15 | 1.11 | 1.17 | 1.16 |
| EMC-BAC-2 | 1.11 | 1.1 | 0.997 | 0.518 | 0.451 | 1.15 | 1.06 | 0.861 | 0.595 | 0.582 | 0.288 | 0.19 | 0.243 | 0.238 | 0.225 | 0.797 | 0.864 | 0.84 | 0.854 | 0.776 |
| NCI-H647 | 1.03 | 1.04 | 0.907 | 0.213 | 0.111 | 1.2 | 1.38 | 1.14 | 0.882 | 0.545 | 0.339 | 0.176 | 0.167 | 0.258 | 0.131 | 0.977 | 1.17 | 0.952 | 0.441 | 0.435 |
| LCLC-97TM1 | 0.528 | 0.434 | 0.265 | 0.151 | 0.0908 | 0.977 | 0.861 | 0.895 | 0.882 | 0.891 | 0.17 | 0.184 | 0.233 | 0.147 | 0.0986 | 0.205 | 0.185 | 0.177 | 0.151 | 0.159 |
| HOP-62 | 0.779 | 0.864 | 0.657 | 0.767 | 0.632 | 1.05 | 1.07 | 1.06 | 1.11 | 1.16 | 0.323 | 0.224 | 0.297 | 0.286 | 0.144 | 0.954 | 1.04 | 1.11 | 1.17 | 1.04 |
| NCI-H1437 | 0.491 | 0.605 | 0.472 | 0.205 | 0.185 | 1.16 | 1.26 | 1.24 | 1.1 | 0.621 | 0.402 | 0.391 | 0.428 | 0.416 | 0.374 | 1 | 1.13 | 0.965 | 0.591 | 0.28 |
| NCI-H1755 | 0.99 | 0.947 | 0.985 | 0.981 | 0.969 | 0.981 | 0.949 | 0.903 | 0.971 | 0.937 | 0.681 | 0.422 | 0.49 | 0.438 | 0.403 | 0.971 | 0.98 | 1.02 | 1.05 | 1.01 |
| HARA | 1.1 | 0.993 | 1.11 | 1.08 | 1 | 0.791 | 0.946 | 0.779 | 0.816 | 0.866 | 0.144 | 0.13 | 0.11 | 0.123 | 0.0865 | 0.974 | 1.03 | 0.922 | 0.798 | 1.04 |
| HCC-15 | 0.953 | 1.02 | 0.923 | 0.623 | 0.636 |  | 0.922 | 0.94 | 0.49 | 0.404 | 0.29 | 0.194 | 0.222 | 0.2 | 0.149 | 0.878 | 0.842 | 0.927 | 0.795 | 0.725 |
| LOU-NH91 | 0.493 | 0.477 | 0.479 | 0.487 | 0.407 | 0.742 | 0.879 | 0.944 | 0.931 | 0.839 | 0.617 | 0.363 | 0.473 | 0.422 | 0.344 |  | 0.826 | 0.953 | 0.73 | 0.7 |
| NCI-H23 |  | 1.06 | 0.93 | 0.514 | 0.567 |  | 0.863 | 1.03 | 0.855 | 0.981 | 0.378 | 0.342 | 0.296 | 0.342 | 0.236 |  | 0.539 | 0.683 | 0.473 | 0.638 |
| NCI-H1666 | 0.833 | 0.559 | 0.476 | 0.302 | 0.272 | 0.964 | 0.872 | 0.792 | 0.5 | 0.468 | 0.6 | 0.572 | 0.492 | 0.473 | 0.458 | 0.803 | 0.762 | 0.561 | 0.268 | 0.285 |
| NCI-H358 |  |  |  |  |  | 0.743 | 0.737 | 0.341 | 0.151 | 0.122 | 0.108 | 0.111 | 0.107 | 0.103 | 0.0821 | 0.756 | 0.896 | 0.529 | 0.215 | 0.176 |
| NCI-H2085 | 0.903 | 1.05 | 0.907 | 0.709 | 0.716 | 1.05 | 0.981 | 1.08 | 0.923 | 0.855 | 0.809 | 0.531 | 0.546 | 0.481 | 0.345 | 1.03 | 0.927 | 0.815 | 0.716 | 0.82 |
| LCLC-103H | 1.07 | 1.12 | 1.08 | 1.14 | 1.12 | 0.767 | 0.82 | 0.786 | 0.66 | 0.758 | 0.459 | 0.335 | 0.484 | 0.352 | 0.213 | 0.935 | 1.17 | 1.06 | 1.17 | 1.14 |
